# Test results as given in patent US20250064947A1, “CYTOTOXICITY TARGETING CHIMERAS FOR FIBROBLAST ACTIVATION PROTEIN-EXPRESSING CELLS” (Glaxosmithkline Intellectual Property Development Limited, priority 2022, published 2025).
# Target: T1, FAP (Homo sapiens, UniProt Q12884)
# T1 construct: Target cells: WI-38 cells (typically 1000-20,000 cells per well); endogenous in cells; host or cells: WI-38 cells
# T1 sequence (Q12884 1-760): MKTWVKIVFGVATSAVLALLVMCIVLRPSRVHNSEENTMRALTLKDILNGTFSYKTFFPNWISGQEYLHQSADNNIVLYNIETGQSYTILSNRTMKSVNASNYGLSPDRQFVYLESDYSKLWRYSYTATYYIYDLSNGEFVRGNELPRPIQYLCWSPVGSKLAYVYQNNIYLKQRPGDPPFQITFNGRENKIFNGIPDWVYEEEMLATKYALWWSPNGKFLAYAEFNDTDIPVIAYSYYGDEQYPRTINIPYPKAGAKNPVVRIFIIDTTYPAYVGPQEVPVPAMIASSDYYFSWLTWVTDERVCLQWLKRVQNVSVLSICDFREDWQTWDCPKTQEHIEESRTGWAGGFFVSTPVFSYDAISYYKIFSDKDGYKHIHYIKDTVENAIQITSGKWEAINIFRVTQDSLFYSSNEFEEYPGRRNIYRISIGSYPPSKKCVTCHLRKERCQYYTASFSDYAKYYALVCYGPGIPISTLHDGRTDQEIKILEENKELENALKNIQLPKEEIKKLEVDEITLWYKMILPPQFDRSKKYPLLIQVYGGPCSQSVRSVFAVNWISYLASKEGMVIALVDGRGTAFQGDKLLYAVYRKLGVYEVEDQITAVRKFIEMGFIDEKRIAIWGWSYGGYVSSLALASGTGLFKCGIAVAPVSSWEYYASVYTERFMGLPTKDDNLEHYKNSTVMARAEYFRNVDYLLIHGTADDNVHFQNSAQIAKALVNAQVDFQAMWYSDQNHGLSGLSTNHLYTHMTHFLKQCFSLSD
# Assay: Antibody dependent cellular cytotoxicity (ADCC) reporter assay
# Assay type: cell-based
# Details: WI-38 target cells; Jurkat FcγRIIIa NFAT-luciferase reporter cells; with anti-cotinine antibody (SEQ ID NO: 11/12); 12-18 hours; average if more than one run; read-out: ADCC Reporter Assay pEC50 (converted)
# Description: An antibody dependent cellular cytotoxicity (ADCC) reporter assay was conducted using the following four assay components: (i) ARM compound of Formula (I) targeting FAP (concentrations ranging from […]); (ii) anti-cotinine antibody having a heavy chain sequence of SEQ ID NO: 11 and a light chain sequence of SEQ ID NO: 12 (rabbit variable region with human IgG1 Fc domain containing DE mutation (S239D/I332E)) (concentrations ranging from 0.01 μg/mL 200 μg/mL); (iii) Target cells: WI-38 cells (typically 1000-20,000 cells per well); and (iv) Reporter cells—Jurkat cells engineered to express FcγRIIIa with a reporter gene luciferase under the control of the NFAT promoter (typically 3000-75,000 cells per well). Reagents were combined in final volume of 20 μL in 384—well tissue culture treated plate. All four assay components were incubated together for about 12-18 hours. Thereafter, BioGlo Detection reagent (Promega) was added to the wells to lyse the cells and provide a substrate for the luciferase reporter protein.
# Luminescence signal was measured on a microplate reader capable of measuring luminescence and signal:background was calculated by dividing the signal of a test well by the signal obtained when no compound of formula (I) was included in the assay. EC50 calculations were done using Graphpad Prism Software, specifically a nonlinear regression curve fit (Y=Bottom+(Top−Bottom)/(1+10^((Log EC50−X)*HillSlope))).
# ARMs compounds of Formula (I) were tested for ADCC activity in the above assay in one or more experimental runs and the results are shown in Table 3 below. Potency of the compounds of Formula (I) is reported as a pEC50 values. The pEC50 value is the negative log of the EC50 value, wherein the EC50 value is half maximal effective concentration measured in molar (M). For compounds tested in more than one experimental run, the pEC50 value is reported as an average.
row,SMILES,EC50
1,"CN1C(=O)C[C@H](C(=O)NCCOCCOCCOCCOCCOCCOCCOCCOCCOCCOCCOCCOCCOCCOCCOCCNC(=O)COc2ccc3c(C(=O)NCC(=O)N4CC(F)(F)C[C@H]4C#N)ccnc3c2)[C@H]1c1cccnc1 [Example 11, N-(2-((S)-2-cyano-4,4-difluoropyrrolidin-1-yl)-2-oxoethyl)-7-((1-((2S,3S)-1-methyl-5-oxo-2-(pyridin-3-yl)pyrrolidin-3-yl)-1,51-dioxo-5,8,11,14,17,20,23,26,29,32,35,38,41,44,47-pentadecaoxa-2,50-diazadopentacontan-52-yl)oxy)quinoline-4-carboxamide]",> 1000 nM
2,"CN1C(=O)C[C@H](C(=O)NCCOCCOCCOCCOCCOCCOCCOCCOCCOCCOCCOCCOCCOCCOCCOCCOCCOCCOCCOCCOCCOCCOCCOCCNC(=O)COc2ccc3c(C(=O)NCC(=O)N4CCC[C@H]4C#N)ccnc3c2)[C@H]1c1cccnc1 [Example 12, N-(2-((S)-2-cyanopyrrolidin-1-yl)-2-oxoethyl)-7-((1-((2S,3S)-1-methyl-5-oxo-2-(pyridin-3-yl)pyrrolidin-3-yl)-1,75-dioxo-5,8,11,14,17,20,23,26,29,32,35,38,41,44,47,50,53,56,59,62,65,68,71-tricosaoxa-2,74-diazahexaheptacontan-76-yl)oxy)quinoline-4-carboxamide]",1 nM
3,"CN1C(=O)C[C@H](C(=O)NCCOCCOCCOCCOCCOCCOCCOCCOCCOCCOCCOCCOCCOCCOCCOCCOCCOCCOCCOCCOCCOCCOCCOCCNC(=O)COc2ccc3c(C(=O)NCC(=O)N4CC(F)(F)C[C@H]4C#N)ccnc3c2)[C@H]1c1cccnc1 [Example 13, N-(2-((S)-2-cyano-4,4-difluoropyrrolidin-1-yl)-2-oxoethyl)-7-((1-((2S,3S)-1-methyl-5-oxo-2-(pyridin-3-yl)pyrrolidin-3-yl)-1,75-dioxo-5,8,11,14,17,20,23,26,29,32,35,38,41,44,47,50,53,56,59,62,65,68,71-tricosaoxa-2,74-diazahexaheptacontan-76-yl)oxy)quinoline-4-carboxamide]",1 nM
